Data: patent US11116767B2, “3,5-disubstituted pyrazoles useful as checkpoint kinase 1 (Chk1) inhibitors, and their preparations and applications” (PHARMAENGINE, INC., priority 2016, dated 2021)
Read-outs that look alike come from different tables or passages of the source.

How the values were obtained:
Chk1 = target: T1, Chk1 (Homo sapiens, UniProt O14757); experiment: biochemical; details: ADP-Glo; read-out: Chk1 in vitro enzyme activity (grade)
T1 construct: purchased BPS 40039
T1 sequence (O14757 1-476): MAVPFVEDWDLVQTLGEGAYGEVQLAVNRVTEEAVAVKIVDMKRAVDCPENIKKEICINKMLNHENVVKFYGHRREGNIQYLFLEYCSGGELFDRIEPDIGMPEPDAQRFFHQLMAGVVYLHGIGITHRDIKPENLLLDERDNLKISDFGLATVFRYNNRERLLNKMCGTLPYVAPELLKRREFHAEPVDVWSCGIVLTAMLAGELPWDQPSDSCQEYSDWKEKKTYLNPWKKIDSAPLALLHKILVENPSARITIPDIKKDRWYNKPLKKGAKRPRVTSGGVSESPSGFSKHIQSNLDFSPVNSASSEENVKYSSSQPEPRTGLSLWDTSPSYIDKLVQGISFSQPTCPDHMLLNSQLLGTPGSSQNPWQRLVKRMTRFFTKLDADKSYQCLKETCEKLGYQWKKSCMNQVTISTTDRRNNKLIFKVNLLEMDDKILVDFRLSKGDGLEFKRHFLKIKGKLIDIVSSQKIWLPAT

HT-29 = experiment: Cancer cell growth inhibition assay (CellTiter-Glo), HT-29; format: cell-based, Human; details: Homo sapiens, HT-29; 72 hours, cellular ATP content; read-out: HT-29 anti cell proliferation activity (grade)
Experimental: (§1) Human cancer cell lines were purchased from American Type Culture Collection (Manassas, Va.). The trypsinized cells were diluted to required volume at densities of 44,000 cells/ml. 90 ul cell slurry was dispensed per well in 96-well flat-bottomed plates with the recommended culture medium. The cells were incubated for 24 hours at 37° C. in 5% CO2 under humidified condition. The cells were then incubated with compounds at various concentrations for 72 hours in culture medium supplemented with 0.5% (v/v) FBS. Growth inhibition was assessed by assay of cellular ATP content using CellTiter-Glo reagent to each well. Luminesce was read on Envision. The inhibition rate (%)=(Max signal compound signal)/(Max signal Min signal)×100.

MDA-MB-231 = experiment: Cancer cell growth inhibition assay (CellTiter-Glo), MDA-MB-231; format: cell-based, Human; details: Homo sapiens, MDA-MB-231; 72 hours, cellular ATP content; read-out: MDA-MB-231 anti cell proliferation activity (grade)
Experimental: as §1

Chk2 = target: T2, Chk2 (Homo sapiens, UniProt O96017); experiment: biochemical; details: ADP-Glo; read-out: Chk2 in vitro enzyme activity (grade)
T2 construct: purchased Carna 02-162
T2 sequence (O96017 whole entry): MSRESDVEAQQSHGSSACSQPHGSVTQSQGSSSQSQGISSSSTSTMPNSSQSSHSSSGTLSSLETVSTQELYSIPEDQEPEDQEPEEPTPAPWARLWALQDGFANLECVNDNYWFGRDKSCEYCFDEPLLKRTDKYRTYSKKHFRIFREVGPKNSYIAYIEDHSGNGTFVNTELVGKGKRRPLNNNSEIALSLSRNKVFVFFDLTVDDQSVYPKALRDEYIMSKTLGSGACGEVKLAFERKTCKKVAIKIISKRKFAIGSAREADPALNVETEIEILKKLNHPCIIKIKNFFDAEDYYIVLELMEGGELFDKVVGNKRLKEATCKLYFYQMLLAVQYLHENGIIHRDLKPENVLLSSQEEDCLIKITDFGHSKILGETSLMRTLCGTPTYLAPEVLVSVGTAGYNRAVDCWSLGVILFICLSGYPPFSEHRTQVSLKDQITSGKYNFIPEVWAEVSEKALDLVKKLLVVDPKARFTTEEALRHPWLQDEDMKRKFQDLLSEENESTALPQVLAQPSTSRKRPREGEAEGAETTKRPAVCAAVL

[1] = Pharmacokinetics study in rats, intravenous; format: in vivo, SD rats; details: rat, IV; for AUC(0-inf) / AUC(0-t) / clearance / MRT / half-life / Vd: male, SD, plasma, 10 mg/kg; for AUC(0-inf): read-out: AUC0-inf; for AUC(0-t): read-out: AUC0-t; for clearance: read-out: CL (converted); for MRT: read-out: MRT; for half-life: read-out: t½ (converted); for Vd: iv; for half-life and exposure compared with LY2606368: 10 mg/kg (LY2606368 5 mg/kg)
Experimental: Compounds were formulated in 30% SEB-β-CD (Zhiyuan Bio-technology) with 1 molar equivalents of HCl (pH adjusted to 3-5). Male SD rats (280-350 g) were purchased from Medical Laboratory Animal Center of Guangdong. Three rats were used for each PK study. […] At various time points after compound administration, approximately 0.2˜0.3 mL of blood was collected by cutting the end of tail into tubes containing K2-EDTA. The plasma was separated via centrifugation and stored at −80° C. A PE Sciex API-3000 LC-MS/MS system (Applied Biosystems, Inc.) was used to analyze compound concentrations in plasma.
PK studies of ChK1 inhibitors were conducted in rats after intravenous administration at 10 mg/kg. […]. […]

[2] = Human liver S9 metabolic stability; format: in vitro ADME; details: for Percentage Remaining %: 1 μM, 37° C.; for metabolic stability compared with LY2606368: human liver S9; for half-life at 1 μM: human liver S9, 1 μM
Experimental: Compounds (1 μM) were incubated with human liver S9 (from BD Gentest) at final liver microsomal protein concentration of 0.5 mg/mL for 0, 5, 15, 30, 45 min at 37° C. The remaining compounds in the reaction were measured by LC-MS/MS. The half-life (T½) 0.693/K (K is the rate constant from a plot of ln [concentration] vs. incubation time).

SMILES	IC50 (Chk1)	IC50 (HT-29)	IC50 (MDA-MB-231)	melting point	IC50 (Chk2)	further results
COc1ccc(F)c(OCCCN)c1-c1cc(Nc2cnc(C#N)cn2)n[nH]1 [Compound 1, 5-(5-(2-(3-Aminopropoxy)-3-fluoro-6-methoxyphenyl)-1H-pyrazol-3-ylamino)pyrazine-2-carbonitrile]	1 to 10 nM	100 to 500 nM	100 to 500 nM	221 to 224 °C		
COc1c(F)ccc(OCCCN)c1-c1cc(Nc2cnc(C#N)cn2)n[nH]1 [Compound 2, 5-((5-(6-(3-aminopropoxy)-3-fluoro-2-methoxyphenyl)-1H-pyrazol-3-yl)amino)pyrazine-2-carbonitrile]	≤ 1 nM	100 to 500 nM	100 to 500 nM	80 to 84 °C		
COc1cc(Br)cc(OCCCN)c1-c1cc(Nc2cnc(C#N)cn2)n[nH]1 [Compound 5, 5-(5-(2-(3-Aminopropoxy)-4-bromo-6-methoxyphenyl)-1H-pyrazol-3-ylamino)pyrazine-2-carbonitrile]	≤ 1 nM	10 to 50 nM	50 to 100 nM	165 to 175 °C	50 to 100 nM	AUC(0-inf) [1]: 2990 ng·h/mL; AUC(0-t) [1]: 2960 ng·h/mL; clearance [1]: 60 mL/min/kg; MRT [1]: 2.8 h; half-life [1]: 5.3 h; Vd ([1]; read-out: Vd): 29.5 L/kg; Vd ([1]; read-out: Vss): 10.2 L/kg; half-life and exposure compared with LY2606368 [1]: longer half-life and higher exposure than LY2606368
COc1cc(C)cc(OCCCN)c1-c1cc(Nc2cnc(C#N)cn2)n[nH]1 [Compound 6, 5-(5-(2-(3-aminopropoxy)-6-methoxy-4-methylphenyl)-1H-pyrazol-3-ylamino)pyrazine-2-carbonitrile]	≤ 1 nM	10 to 50 nM	10 to 50 nM	188 to 191 °C	50 to 100 nM	
COc1cc(OC)c(-c2cc(Nc3cnc(C#N)cn3)n[nH]2)c(OCCCN)c1 [Compound 7, 5-(5-(2-(3-Aminopropoxy)-4,6-dimethoxyphenyl)-1H-pyrazol-3-ylamino)pyrazine-2-carbonitrile]	1 to 10 nM	10 to 50 nM	10 to 50 nM	145 to 151 °C	10 to 50 nM	
COc1cc(F)cc(OCC2(CN)CC2)c1-c1cc(Nc2cnc(C#N)cn2)n[nH]1 [Compound 13, 5-(5-(2-((1-(Aminomethyl)cyclopropyl)methoxy)-4-fluoro-6-methoxyphenyl)-1H-pyrazol-3-ylamino)pyrazine-2-carbonitrile]	≤ 1 nM	≤ 10 nM	10 to 50 nM	202 to 206 °C	10 to 50 nM	Percentage Remaining % ([2]; 0 min): 100.00%; Percentage Remaining % ([2]; 5 min): 98.69%; Percentage Remaining % ([2]; 15 min): 99.08%; Percentage Remaining % ([2]; 30 min): 96.23%; Percentage Remaining % ([2]; 45 min): 100.18%; metabolic stability compared with LY2606368 [2]: more metabolic stable than LY2606368; half-life at 1 μM [2]: 5 h
COc1cc(Cl)cc(OCC2(CN)CC2)c1-c1cc(Nc2cnc(C#N)cn2)n[nH]1 [Compound 14, 5-(5-(2-((1-(Aminomethyl)cyclopropyl)methoxy)-4-chloro-6-methoxyphenyl)-1H-pyrazol-3-ylamino)pyrazine-2-carbonitrile]	≤ 1 nM	10 to 50 nM	10 to 50 nM	232 to 236 °C	10 to 50 nM	AUC(0-inf) [1]: 3120 ng·h/mL; AUC(0-t) [1]: 3100 ng·h/mL; clearance [1]: 56.7 mL/min/kg; MRT [1]: 4.1 h; half-life [1]: 4 h; Vd ([1]; read-out: Vd): 19.2 L/kg; Vd ([1]; read-out: Vss): 13.9 L/kg; half-life and exposure compared with LY2606368 [1]: longer half-life and higher exposure than LY2606368
COc1cc(Br)cc(OCC2(CN)CC2)c1-c1cc(Nc2cnc(C#N)cn2)n[nH]1 [Compound 15, 5-(5-(2-((1-(Aminomethyl)cyclopropyl)methoxy)-4-bromo-6-methoxyphenyl)-1H-pyrazol-3-ylamino)pyrazine-2-carbonitrile]	≤ 1 nM	10 to 50 nM	10 to 50 nM		10 to 50 nM	AUC(0-inf) [1]: 4980 ng·h/mL; AUC(0-t) [1]: 4890 ng·h/mL; clearance [1]: 63.3 mL/min/kg; MRT [1]: 3.8 h; half-life [1]: 7.4 h; Vd ([1]; read-out: Vd): 46.9 L/kg; Vd ([1]; read-out: Vss): 19.2 L/kg; half-life and exposure compared with LY2606368 [1]: longer half-life and higher exposure than LY2606368; Percentage Remaining % ([2]; 0 min): 100.00%; Percentage Remaining % ([2]; 5 min): 94.64%; Percentage Remaining % ([2]; 15 min): 93.89%; Percentage Remaining % ([2]; 30 min): 93.30%; Percentage Remaining % ([2]; 45 min): 87.68%; metabolic stability compared with LY2606368 [2]: more metabolic stable than LY2606368; half-life at 1 μM [2]: 7.99 h
COc1cc(C)cc(OCC2(CN)CC2)c1-c1cc(Nc2cnc(C#N)cn2)n[nH]1 [Compound 16, 5-(5-(2-((1-(Aminomethyl)cyclopropyl)methoxy)-6-methoxy-4-methylphenyl)-1H-pyrazol-3-ylamino)pyrazine-2-carbonitrile]	≤ 1 nM	≤ 10 nM	10 to 50 nM	165 to 170 °C	10 to 50 nM	
COc1cc(OC)c(-c2cc(Nc3cnc(C#N)cn3)n[nH]2)c(OCC2(CN)CC2)c1 [Compound 17, 5-(5-(2-((1-(Aminomethyl)cyclopropyl)methoxy)-4,6-dimethoxyphenyl)-1H-pyrazol-3-ylamino)pyrazine-2-carbonitrile]	1 to 10 nM	≤ 10 nM	10 to 50 nM	160 to 164 °C	10 to 50 nM	
CNCC1(COc2c(F)ccc(OC)c2-c2cc(Nc3cnc(C#N)cn3)n[nH]2)CC1 [Compound 18, 5-(5-(3-fluoro-6-methoxy-2-((1-((methylamino)methyl)cyclopropyl)methoxy)phenyl)-1H-pyrazol-3-ylamino)pyrazine-2-carbonitrile]	1 to 10 nM			213 to 215 °C		
CNCC1(COc2ccc(F)c(OC)c2-c2cc(Nc3cnc(C#N)cn3)n[nH]2)CC1 [Compound 19, 5-((5-(3-fluoro-2-methoxy-6-((1-((methylamino)methyl)cyclopropyl)methoxy)phenyl)-1H-pyrazol-3-yl)amino)pyrazine-2-carbonitrile]	1 to 10 nM	50 to 100 nM	100 to 500 nM	215 to 219 °C		
CNCC1(COc2cc(F)cc(OC)c2-c2cc(Nc3cnc(C#N)cn3)n[nH]2)CC1 [Compound 20, 5-(5-(4-Fluoro-2-methoxy-6-((1-((methylamino)methyl)cyclopropyl)methoxy)phenyl)-1H-pyrazol-3-ylamino)pyrazine-2-carbonitrile]	≤ 1 nM	≤ 10 nM	10 to 50 nM	228 to 230 °C		
CCOC(=O)NCCCOc1cc(F)cc(OC)c1-c1cc(Nc2cnc(C#N)cn2)n[nH]1 [Compound 38, Ethyl 3-(2-(3-(5-cyanopyrazin-2-ylamino)-1H-pyrazol-5-yl)-5-fluoro-3-methoxyphenoxy)propylcarbamate]	10 to 50 nM					
